Source: publication PMC1971568 (British Journal of Cancer, 1990)
Where two headings read alike, the source gives them in different places.

Columns and labels:
[1] = in vivo, ip
[2] = Nu/Nu, mouse, in vivo, iv
LS174T colonic cell line = test system: LS174T colonic cell line; parameters: method as in Springer et al., 1990; conditions: ref Springer et al., 1990; cited from earlier work
[3] = test system: carboxypeptidase G2 (CPG2); parameters: method as in Bagshawe et al., 1988; conditions: ref Bagshawe et al., 1988; cited from earlier work
CC3 tumours = test system: CC3 tumours; parameters: method as in Bagshawe et al., 1988; conditions: single course of two phase prodrug therapy (antibody-enzyme conjugate then prodrug); ref Bagshawe et al., 1988; cited from earlier work
[4] = test system: human JAR choriocarcinoma cell line; conditions: cited from earlier work
[5] = Localisation of antibody-enzyme conjugate: enzyme activity in tissues, CC3 model; conditions: tissue homogenate incubated at 37C with prodrug 34 µg ml-1 (87 µM)

SMILES: O=C(O)CC[C@H](NC(=O)c1ccc(N(CCCl)CCCl)cc1)C(=O)O [prodrug, 4-(bis (2-chloroethyl)amino) benzoyl-L-glutamic acid]
- AUC, area under plasma concentration versus time curve from zero to infinity ([1]; Nu/Nu, mouse): 7.09
- Cl, total body clearance ([1]; Nu/Nu, mouse, 41 umol/kg): 1.18
- Vd, apparent volume of distribution ([1]; Nu/Nu, mouse, 41 umol/kg): 0.07 L
- AUC in liver ([1]; 41 umol/kg): 62
- AUC in tumour ([1]; 41 umol/kg): 3.3
- AUC, area under plasma concentration versus time curve from zero to infinity [2]: 15.4
- Cytotoxicity against LS174T cells in culture (LS174T colonic cell line): very little cytotox- icity
- Affinity of the enzyme for prodrug [3]: very high affinity
- Growth of CC3 tumours (CC3 tumours): marked inhibition of growth
- Cytotoxicity against JAR cells in culture [4]: very little cytotox- icity
- Activation of prodrug by tissues of mice which did not receive conjugate [5]: No activation
